Among the test systems are SF-268 CNS; SK-MEL-5 melanoma; BT-549 breast; K-562 leukemia; NCI/ADR-RES ovarian; EKVX NSCLC; UO-31 renal; MDA-MB-231 breast; MDA-MB-435; MDA-N.
Common to all, as to assay: growth of human tumour cells (NCI), 48 h

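Briefly, cells in 96-well plates were exposed to five compound concentrations for 48 h, and endpoints were estimated by linear interpolation. TGI denotes the concentration required for complete inhibition of growth.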

On to `COc1ccc2cc1Oc1ccc(cc1)C(Sc1ccccc1)CCOC(=O)CC2` (stereo not given), for which the TGI with SF-268 CNS, in the assay with SK-MEL-5 melanoma, in the assay on BT-549 breast, with K-562 leukemia, in the assay on NCI/ADR-RES ovarian and in the assay with EKVX NSCLC was above 100 µM each time. Also, the TGI in the assay on UO-31 renal, in the assay with MDA-MB-231 breast, in the assay on MDA-MB-435 and in the assay on MDA-N was above 100 µM throughout.
For `N#Cc1c(SCc2ccccc2)nc(-c2ccccc2)[nH]c1=S`, the TGI is 57 µM in the assay on SF-268 CNS; 54.8 µM with SK-MEL-5 melanoma; 54.2 µM with BT-549 breast; above 100 µM in the assay with K-562 leukemia; 67.4 µM with NCI/ADR-RES ovarian; 93.6 µM in the assay with EKVX NSCLC. Further, the TGI was 35 µM in the assay on UO-31 renal, above 100 µM in the assay with MDA-MB-231 breast, 61.3 µM with MDA-MB-435 and 67.1 µM in the assay on MDA-N.
On to `O=C1CSC(/C(=C\c2ccc(Cl)cc2)c2nc3ccccc3[nH]2)=N1`, for which the TGI with SF-268 CNS was 23 µM; with SK-MEL-5 melanoma, 24.6 µM; in the assay on BT-549 breast, 36.6 µM; in the assay with K-562 leukemia it was above 100 µM; in the assay on NCI/ADR-RES ovarian, 36.9 µM; in the assay on EKVX NSCLC it was 32.2 µM. For the same compound, the TGI in the assay with UO-31 renal stood at 7.64 µM; with MDA-MB-231 breast it was 28.3 µM; in the assay with MDA-MB-435 it was 32.6 µM; in the assay on MDA-N, 37.6 µM.
With `CCOC(=O)c1cc(C(=O)c2ccccc2)n2nc(-c3ccc(Cl)cc3)ccc12`, the TGI in the assay with SF-268 CNS is 27.6 µM; in the assay with SK-MEL-5 melanoma it was 51.9 µM; with BT-549 breast, 35.4 µM; in the assay on K-562 leukemia, above 100 µM; in the assay on NCI/ADR-RES ovarian, 81.8 µM; with EKVX NSCLC it was 42.6 µM. In addition, the TGI in the assay with UO-31 renal is 27.1 µM; with MDA-MB-231 breast, above 100 µM; in the assay with MDA-MB-435, above 100 µM; in the assay on MDA-N, above 100 µM.
With `Cc1ccc(OCC2OC(n3cnc4c(N(C)C)nc(Br)nc43)CC2Oc2ccc(C)cc2)cc1` (stereo not given), the TGI in the assay on SF-268 CNS, with SK-MEL-5 melanoma, in the assay with BT-549 breast, with K-562 leukemia, in the assay on NCI/ADR-RES ovarian and with EKVX NSCLC was above 100 µM in each case. Also, the TGI in the assay with UO-31 renal, with MDA-MB-231 breast, with MDA-MB-435 and with MDA-N was above 100 µM throughout.
Turning to `CC(=O)N1CCc2c([nH]c3ccc(Br)cc23)C1c1ccccc1` (stereo not given), the TGI in the assay with SF-268 CNS, in the assay on SK-MEL-5 melanoma, in the assay on BT-549 breast, in the assay on K-562 leukemia, in the assay with NCI/ADR-RES ovarian and in the assay with EKVX NSCLC was above 10 µM in each case. Also, the TGI with UO-31 renal, in the assay on MDA-MB-231 breast, with MDA-MB-435 and in the assay on MDA-N was above 10 µM throughout.

Values taken from PubChem BioAssay (NCI).
